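Dose response: 5 concentrations. Exposure: 48 h. Format: 96-well plates. Endpoint: linear interpolation; highest concentration if not reached. The concentration for 50% growth inhibition is given as GI50. TGI: total growth inhibition.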
What was measured:
Assay in all cases: NCI tumour cell line growth inhibition, 48 h
UACC-62 melanoma = system: UACC-62 melanoma
MOLT-4 leukemia = system: MOLT-4 leukemia
SNB-19 CNS = system: SNB-19 CNS
MCF7 breast = system: MCF7 breast
UO-31 renal = system: UO-31 renal
EKVX NSCLC = system: EKVX NSCLC
OVCAR-3 ovarian = system: OVCAR-3 ovarian
SN12C renal = system: SN12C renal
HT29 colon = system: HT29 colon
K-562 leukemia = system: K-562 leukemia
786-0 renal = system: 786-0 renal
IGROV1 ovarian = system: IGROV1 ovarian
SF-539 CNS = system: SF-539 CNS
PC-3 prostate = system: PC-3 prostate
RPMI-8226 leukemia = system: RPMI-8226 leukemia
DU-145 prostate = system: DU-145 prostate
LOX IMVI melanoma = system: LOX IMVI melanoma
NCI-H23 lung = system: NCI-H23 lung
OVCAR-4 ovarian = system: OVCAR-4 ovarian
HL-60(TB) leukemia = system: HL-60(TB) leukemia
RXF 393 renal = system: RXF 393 renal
OVCAR-8 ovarian = system: OVCAR-8 ovarian
HS 578T breast = system: HS 578T breast
TK-10 renal = system: TK-10 renal
SK-OV-3 ovarian = system: SK-OV-3 ovarian
OVCAR-5 ovarian = system: OVCAR-5 ovarian
SF-268 CNS = system: SF-268 CNS
MDA-MB-231 breast = system: MDA-MB-231 breast
UACC-257 melanoma = system: UACC-257 melanoma
NCI-H522 lung = system: NCI-H522 lung
HOP-92 NSCLC = system: HOP-92 NSCLC
NCI-H226 lung = system: NCI-H226 lung
HCC-2998 colon = system: HCC-2998 colon
MALME-3M melanoma = system: MALME-3M melanoma
CCRF-CEM leukemia = system: CCRF-CEM leukemia
SK-MEL-28 melanoma = system: SK-MEL-28 melanoma
KM12 colon = system: KM12 colon
ACHN renal = system: ACHN renal
SNB-75 CNS = system: SNB-75 CNS
SF-295 CNS = system: SF-295 CNS
CAKI-1 renal = system: CAKI-1 renal
HOP-62 NSCLC = system: HOP-62 NSCLC
T-47D breast = system: T-47D breast
A498 renal = system: A498 renal
A549 NSCLC = system: A549 NSCLC
COLO 205 colon = system: COLO 205 colon
U251 CNS = system: U251 CNS
MDA-MB-468 breast = system: MDA-MB-468 breast
SK-MEL-5 melanoma = system: SK-MEL-5 melanoma
SR leukemia = system: SR leukemia
SW-620 colon = system: SW-620 colon
HCT-116 colon = system: HCT-116 colon
MDA-MB-435 = system: MDA-MB-435
HCT-15 colon = system: HCT-15 colon
M14 melanoma = system: M14 melanoma
BT-549 breast = system: BT-549 breast
NCI-H460 lung = system: NCI-H460 lung

## CC1(C)CC[C@]2(C(=O)Nc3ccc(Br)cc3)CC[C@]3(C)C(=CCC4[C@@]5(C)C[C@@H](O)[C@H](O)[C@@](C)(CO)C5CC[C@]43C)C2C1 (some centres undefined)
UACC-62 melanoma
  GI50: 12 µM
  TGI: 25.2 µM
MOLT-4 leukemia
  GI50: 13.2 µM
  TGI: 50 µM
SNB-19 CNS
  GI50: 25.8 µM
  TGI: > 100 µM
MCF7 breast
  GI50: 14.9 µM
  TGI: 34.9 µM
UO-31 renal
  GI50: 13.5 µM
  TGI: 33.4 µM
EKVX NSCLC
  GI50: 16.6 µM
  TGI: 41.6 µM
OVCAR-3 ovarian
  GI50: 17.1 µM
  TGI: 34 µM
SN12C renal
  GI50: 16.6 µM
  TGI: 31.8 µM
HT29 colon
  GI50: 12.9 µM
  TGI: 26.7 µM
K-562 leukemia
  GI50: 23.1 µM
  TGI: > 100 µM
786-0 renal
  GI50: 16.7 µM
  TGI: 31.5 µM
IGROV1 ovarian
  GI50: 17.1 µM
  TGI: 37.7 µM
SF-539 CNS
  GI50: 15.9 µM
  TGI: 30 µM
PC-3 prostate
  GI50: 14.5 µM
  TGI: 40.8 µM
RPMI-8226 leukemia
  GI50: 19.5 µM
  TGI: 72.3 µM
DU-145 prostate
  GI50: 26.7 µM
  TGI: 81 µM
LOX IMVI melanoma
  GI50: 17.8 µM
  TGI: 33 µM
NCI-H23 lung
  GI50: 17.1 µM
  TGI: 33.6 µM
OVCAR-4 ovarian
  GI50: 15.1 µM
  TGI: 35.8 µM
HL-60(TB) leukemia
  GI50: 18.2 µM
  TGI: 50.7 µM
RXF 393 renal
  GI50: 12.6 µM
  TGI: 25.6 µM
OVCAR-8 ovarian
  GI50: 24 µM
  TGI: 73.7 µM
HS 578T breast
  GI50: 20.1 µM
  TGI: 63.5 µM
TK-10 renal
  GI50: 19.8 µM
  TGI: 49.9 µM
SK-OV-3 ovarian
  GI50: 16.5 µM
  TGI: 38.6 µM
OVCAR-5 ovarian
  GI50: 13.2 µM
  TGI: 27.2 µM
SF-268 CNS
  GI50: 20.9 µM
  TGI: 71.9 µM
MDA-MB-231 breast
  GI50: 15.3 µM
  TGI: 30 µM
UACC-257 melanoma
  GI50: 20.2 µM
  TGI: 56.1 µM
NCI-H522 lung
  GI50: 17.1 µM
  TGI: 34.6 µM
HOP-92 NSCLC
  GI50: 14.5 µM
  TGI: 31.6 µM
NCI-H226 lung
  GI50: 16.8 µM
  TGI: 34.2 µM
HCC-2998 colon
  GI50: 16.2 µM
  TGI: 31 µM
MALME-3M melanoma
  GI50: 16.1 µM
  TGI: 30.4 µM
CCRF-CEM leukemia
  GI50: 23.2 µM
  TGI: 75.9 µM
SK-MEL-28 melanoma
  GI50: 16.1 µM
  TGI: 35.8 µM
KM12 colon
  GI50: 18.1 µM
  TGI: 38.1 µM
ACHN renal
  GI50: 14.6 µM
  TGI: 28.2 µM
SNB-75 CNS
  GI50: 14.5 µM
  TGI: 60.7 µM
SF-295 CNS
  GI50: 15.8 µM
  TGI: 30.6 µM
CAKI-1 renal
  GI50: 12.6 µM
  TGI: 40.8 µM
HOP-62 NSCLC
  GI50: 15 µM
  TGI: 31.8 µM
T-47D breast
  GI50: 13.4 µM
  TGI: 30.4 µM
A498 renal
  GI50: 19 µM
  TGI: 34.6 µM
A549 NSCLC
  GI50: 30.5 µM
  TGI: > 100 µM
COLO 205 colon
  GI50: 15.2 µM
  TGI: 32.8 µM
U251 CNS
  GI50: 16.6 µM
  TGI: 33.5 µM
MDA-MB-468 breast
  GI50: 15 µM
  TGI: 29.4 µM
SK-MEL-5 melanoma
  GI50: 15.7 µM
  TGI: 29.1 µM
SR leukemia
  GI50: 19.1 µM
  TGI: > 100 µM
SW-620 colon
  GI50: 25.7 µM
  TGI: > 100 µM
HCT-116 colon
  GI50: 13.5 µM
  TGI: 26.9 µM
MDA-MB-435
  GI50: 15.9 µM
  TGI: 31.4 µM
HCT-15 colon
  GI50: 14.6 µM
  TGI: 29 µM
M14 melanoma
  GI50: 17.4 µM
  TGI: 40.8 µM
BT-549 breast
  GI50: 16.4 µM
  TGI: 33.2 µM
NCI-H460 lung
  GI50: 17.5 µM
  TGI: 38.3 µM

— PubChem BioAssay (NCI)
